Measurements: article PMC5802278, “Molecular and cellular mechanisms of HIF prolyl hydroxylase inhibitors in clinical trials” (Chemical Science, 2017)
Like-named read-outs stand apart in the source and are kept apart here.

Key:
[1] = system: HIF-1α in HeLa and U2OS cells, HIF-1α and HIF-2α in Hep3b cells; assay: Immunoblotting of HIF-α stabilization, dose titration; type: cell-based, human; settings: 6 hours treatment, all of the cells tested
Method: The cellular HIF-α stabilization was further studied using immunoblotting. […]. page 15: […]
freshly every day as a 400 mM stock solution in 20 mM HCl, this was then diluted to 1 mM in deionized water. L-ascorbic acid (50 mM) and 2OG stock solutions (10 mM) were prepared freshly every day in deionized water as for the PHD2 assays14 . The synthetic consensus ankyrin […]
peptide ([…]-CONH2) was synthesized by GL Biochem
(Shanghai) Ltd and dissolved to 1 mM in deionized water.
20 μl FIH (100 nM) in the assay buffer (50 mM Tris.Cl pH 7.8, 50 mM NaCl) was pre-incubated for 15 minutes in the presence of the inhibitors and the enzyme reaction initiated by addition of 20 μl substrate (200 μM L-ascorbic acid, 20 μM Fe2+, 10 μM synthetic ankyrin peptide 14 and 20 μM 2OG). After 15 minutes the reaction was quenched by addition of 4 μl 10% formic acid and the reaction transferred to a RapidFire RF360 high throughput sampling robot. Samples were aspirated under vacuum onto a C4 Solid Phase Extraction (SPE) cartridge.
After an aqueous washing step (0.1% formic acid in water), to remove non-volatile buffer components from the C4 SPE, peptide was eluted in an organic washing step (85% acetonitrile in water, 0.1% formic acid) and injected into an Agilent 6530 Q-TOF mass spectrometer. Ion chromatogram data was extracted for the non-hydroxylated peptide substrate and the hydroxylated peptide product; the peak area data for extracted ion chromatograms were integrated using RapidFire Integrator software. % conversion of substrate to product was calculated in Microsoft excel and IC50 curves generated using Graphpad Prism.
Cell Culture and Immunoblotting […]
Cells were harvested in urea/SDS buffer (6.7 M urea, 10 mM Tris-Cl pH 6.8, 10% glycerol, and1% SDS) supplemented with 1mM dithiothreitol following a phosphate-buffered saline (PBS) rinse. Cell extracts were analyzed with SDS-PAGE, electroblotted to polyvinylidene difluoride (PVDF) membrane (Millipore) and probed with the corresponding primary antibody for 1 hour at room temperature or overnight at 4 °C. […]

JARID1D (KDM5D) = JARID1D (KDM5D) (Homo sapiens, UniProt Q9BY66); assay: AlphaScreen histone demethylase assay; type: biochemical
Ofd1 = biological target: T1, Ofd1 (Schizosaccharomyces pombe, UniProt Q11120); assay: MALDI-TOF MS Ofd1 hydroxylation assay; type: biochemical
T1 construct: His6 (N); made in house; host or cells: E. coli BL21(DE3)
T1 sequence (Q11120 1-515): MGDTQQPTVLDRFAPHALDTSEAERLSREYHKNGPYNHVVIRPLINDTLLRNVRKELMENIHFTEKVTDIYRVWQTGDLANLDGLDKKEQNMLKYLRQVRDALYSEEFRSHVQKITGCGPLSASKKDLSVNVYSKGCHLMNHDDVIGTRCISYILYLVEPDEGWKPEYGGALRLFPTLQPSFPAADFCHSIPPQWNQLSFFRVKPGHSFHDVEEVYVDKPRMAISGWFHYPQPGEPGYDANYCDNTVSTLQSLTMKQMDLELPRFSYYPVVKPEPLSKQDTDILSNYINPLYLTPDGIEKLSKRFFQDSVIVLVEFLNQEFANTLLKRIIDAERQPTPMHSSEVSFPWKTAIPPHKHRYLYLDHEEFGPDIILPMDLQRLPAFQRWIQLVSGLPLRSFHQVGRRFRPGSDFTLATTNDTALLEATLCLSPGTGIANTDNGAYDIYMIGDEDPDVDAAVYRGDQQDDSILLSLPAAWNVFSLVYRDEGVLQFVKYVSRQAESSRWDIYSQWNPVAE

[2] = system: HIF-1α and HIF-2α in Hep3b cells; assay: Immunoblotting of HIF-α stabilization in Hep3b cells; type: cell-based, human
Method: We then investigated potential time dependent effects of the inhibitors on HIF-α stabilization in Hep3b cells (Fig. 5A). […]
Cell Culture and Immunoblotting
HeLa and RCC4 cells were cultured in Dulbecco’s Modified Eagle’s Medium (DMEM; Sigma Aldrich D6546-500ML) supplemented with 10% fetal bovine serum (Sigma Aldrich F7524-500ML), 4 mM L-glutamine (Sigma Aldrich G7513- 100ML), 50 U/mL penicillin, and 50 μg/mL streptomycin (Sigma Aldrich P0781-100ML). Cells were seeded to reach 90-100% confluency prior to compound treatment. Cells were exposed to the inhibitor at a final concentration of 1% DMSO for 5-6 hours. For Fe(II) titration in the presence of inhibitors, […]
Cells were harvested in urea/SDS buffer (6.7 M urea, 10 mM Tris-Cl pH 6.8, 10% glycerol, and1% SDS) supplemented with 1mM dithiothreitol following a phosphate-buffered saline (PBS) rinse. Cell extracts were analyzed with SDS-PAGE, electroblotted to polyvinylidene difluoride (PVDF) membrane (Millipore) and probed with the corresponding primary antibody for 1 hour at room temperature or overnight at 4 °C. The secondary antibody specific to primary antibody species conjugated with HRP were applied at room temperature for 1 hour.
Millipore), anti-HIF-1α Hyp564 (D43B5, Cell Signaling), anti-HIF-1α HyN803 (a generous […]
Abcam). Details of antibodies used are given in Tian et al.17 Detection of signal was achieved […]
unless otherwise stated) either with film or ChemiDoc MP (BIO-RAD) imaging system. TM Quantification of the immunobloting signal was performed with Image Lab software from […]

[3] = isolated recombinant enzyme, 1 μM, read-out: IC50 Ofd1

Chain of JARID1D (KDM5D) (Q9BY66 whole entry): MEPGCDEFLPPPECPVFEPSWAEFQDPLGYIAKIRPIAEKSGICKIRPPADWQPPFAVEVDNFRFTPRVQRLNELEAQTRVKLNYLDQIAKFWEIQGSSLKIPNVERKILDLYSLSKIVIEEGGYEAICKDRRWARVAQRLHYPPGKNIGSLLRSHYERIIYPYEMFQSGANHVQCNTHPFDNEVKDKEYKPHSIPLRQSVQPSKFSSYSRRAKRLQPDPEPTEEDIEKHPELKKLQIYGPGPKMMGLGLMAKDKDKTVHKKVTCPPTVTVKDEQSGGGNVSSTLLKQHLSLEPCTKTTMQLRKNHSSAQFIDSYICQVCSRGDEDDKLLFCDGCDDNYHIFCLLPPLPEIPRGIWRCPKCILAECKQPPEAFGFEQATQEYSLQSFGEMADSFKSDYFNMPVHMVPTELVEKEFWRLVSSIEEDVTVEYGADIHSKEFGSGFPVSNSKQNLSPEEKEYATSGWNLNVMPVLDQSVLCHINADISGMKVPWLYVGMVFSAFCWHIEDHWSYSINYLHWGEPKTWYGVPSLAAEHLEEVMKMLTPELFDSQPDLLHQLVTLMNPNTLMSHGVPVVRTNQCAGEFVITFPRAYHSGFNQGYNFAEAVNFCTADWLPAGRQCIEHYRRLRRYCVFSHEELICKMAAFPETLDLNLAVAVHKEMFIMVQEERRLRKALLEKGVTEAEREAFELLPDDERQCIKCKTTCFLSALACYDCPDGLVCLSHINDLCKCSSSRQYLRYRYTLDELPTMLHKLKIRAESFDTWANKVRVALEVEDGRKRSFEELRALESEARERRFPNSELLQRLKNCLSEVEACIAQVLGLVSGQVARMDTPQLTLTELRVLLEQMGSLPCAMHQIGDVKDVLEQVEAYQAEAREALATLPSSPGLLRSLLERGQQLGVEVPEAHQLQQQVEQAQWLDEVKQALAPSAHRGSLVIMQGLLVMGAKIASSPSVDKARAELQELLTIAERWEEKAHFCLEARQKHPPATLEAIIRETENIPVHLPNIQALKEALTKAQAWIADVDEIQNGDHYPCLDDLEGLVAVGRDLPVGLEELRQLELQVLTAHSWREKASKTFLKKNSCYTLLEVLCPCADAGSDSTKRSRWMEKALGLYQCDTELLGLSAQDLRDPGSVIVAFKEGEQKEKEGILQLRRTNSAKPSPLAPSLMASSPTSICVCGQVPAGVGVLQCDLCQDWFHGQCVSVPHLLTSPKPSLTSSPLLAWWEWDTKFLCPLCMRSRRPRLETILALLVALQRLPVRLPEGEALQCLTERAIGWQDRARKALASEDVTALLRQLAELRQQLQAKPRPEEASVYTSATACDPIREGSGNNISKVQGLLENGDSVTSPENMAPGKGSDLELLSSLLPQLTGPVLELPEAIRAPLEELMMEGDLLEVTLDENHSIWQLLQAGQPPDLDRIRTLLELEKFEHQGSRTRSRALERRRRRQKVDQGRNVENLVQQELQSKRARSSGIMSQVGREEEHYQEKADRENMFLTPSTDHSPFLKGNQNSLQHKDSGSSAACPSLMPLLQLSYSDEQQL

Row | Compound | concentration at which HIF-1α levels (and HIF-2α levels in Hep3b cells) were saturated [1] | IC50 (JARID1D (KDM5D)) | IC50 (Ofd1) | time at which HIF-1α level saturated ([2]; 10 μM) | time at which HIF-2α level saturated ([2]; 10 μM) | IC50 (JARID1D (KDM5D); read-out: IC50 JARID1D (KDM5D)) | IC50 (Ofd1; [3]) | time at which HIF-2α level saturated ([2]; 2.5 μM) | concentration from which dose-dependent HIF-1α stabilization was clear ([2]; up to 6 hours)
1 | O=C(O)CNC(=O)C1C(=O)N(C2CCCCC2)C(=O)N(C2CCCCC2)C1=O [GSK1278863] | < 100 µM | > 100 µM | 23.9 µM | 3 h | 3 h | – | – | – | –
2 | O=c1c(-n2ccnn2)c[nH]n1-c1cc(N2CCOCC2)ncn1 [Molidustat] | < 100 µM | – | – | after the first hour | after the first hour | > 100 µM | 10.3 µM | 1 h | –
3 | CC(C)(C)OC(=O)c1ccc(-n2[nH]cc(-n3ccnn3)c2=O)nc1 [IOX4] | – | – | 41.3 µM | 3 to 6 h | 3 to 10 h | 91 µM | – | 1 h | –
4 | O=C(O)CNC(=O)c1ncc(-c2cccc(Cl)c2)cc1O [Vadadustat] | – | – | – | – | – | > 100 µM | – | – | ≥ 50 µM
5 | Cc1nc(C(=O)NCC(=O)O)c(O)c2ccc(Oc3ccccc3)cc12 [FG-4592] | < 100 µM | – | – | – | – | > 100 µM | 8.5 µM | – | –
